Experimental data taken from article PMC10518255, “A first-in-class pan-lysyl oxidase inhibitor impairs stromal remodeling and enhances gemcitabine response and survival in pancreatic cancer” (Nature Cancer, 2023).
Values joined by “and” are separate entries in the source; they are usually repeats but may differ in a detail not shown here. Identical values can stand only once.

Tested on: APMA human PDX tumors
Experiment: APMA human PDX model, picrosirius red birefringence (Extended Data Fig. 5i)
Type: in vivo, mouse
Settings: for Quantification of green birefringent (nascent) collagen fibres: Extended Data 5I, human PDXs at endpoint, individual animals
Protocol: Subcutaneous PDX studies were performed by implanting early passage PDX pieces (~4 mm^3) or TKCC10 CCs (1.5 × 10^6 cells per mouse in 100 μl PBS/Matrigel 1:1) into female (PDX) or male (TKCC10) 8-week-old immunocompromised nude Balb/c-Fox1nuAusb mice subcutaneously on the left flank. For the duration of the study, mice were kept in conventional caging with environmental enrichment, access to standard chow, water ad libitum and 12-h light–dark cycle at ambient temperature and humidity. Treatment began when tumors reached 150 mm^3, where each mouse was randomized into a treatment group and administered gemcitabine HCl (100 mg kg^−1 in saline) (Jomar Life Research) or vehicle control (0.9% saline) by i.p. injection twice weekly on day 2 and 4 of the treatment cycle until an ethical end point was reached. These included maximal tumor mass ≥10% of body weight, weight loss ≥20% from maximum body weight or tumor interfering with mobility and affecting access to food and water. Animals with non-tumor-related complications that led to a premature end point were censored. […] Tumor size was monitored every second day by calipers. Tumor volume was calculated using the formula (length × width^2)/2. […]
For assessment of picrosirius red staining in KPC and APMA patient tumors, five representative regions of interest per section were analyzed for both brightfield and polarized light by a blinded reviewer using in-house automated analysis scripts as described previously[28],[34],[58] […]
Extended Data Fig. 5 PXS-5505 in combination with gemcitabine in vivo. a. […] Signal is defined as the enzyme activity in the aorta, while noise is measured in the presence of a high concentration (300 µM) BAPN to abolish any lysyl oxidase family activity. […] FITC-dextran (molecular weight: 10 kDa) signal quantification from KPC tumor end point from each treatment group (vehicle n = 3 biologically independent animals, PXS-5505 n = 5 biologically independent animals, Gem n = 5 biologically independent animals, PXS-5505 + Gem n = 5 biologically independent animals). […] P-values determined by Welchs t-test. […]

Row | SMILES | deposition of collagen I (picrosirius red birefringence) (APMA human PDX, three rounds of treatment) | Quantification of green birefringent (nascent) collagen fibres
1 | Nc1ccn([C@@H]2O[C@H](CO)[C@@H](O)C2(F)F)c(=O)n1 [Gem, gemcitabine] | increase in the deposition of collagen I | 672.333 and 613 and 417.333 and 643.667 and 776 and 904.333 and 1865.67 and 529.667 and 397.667 and 278
2 | Cl.Cl.NC/C=C(\F)CS(=O)(=O)c1cccc2cccnc12.O [PXS-5505, (Z)-3-fluoro-4-(quinolin-8-ylsulfonyl)but-2-en-1-amine dihydrochloride monohydrate] | – | 61.6667 and 1138 and 246 and 184 and 80.3333 and 99.6667 and 1125.33 and 424.667 and 169.333 and 108
